The text below walks through data of US20100298141A1, “SUBSTITUTED PYRIDINE N-OXIDE HERBICIDES” (E. I. DU PONT DE NEMOURS AND COMPANY, priority 2007, published 2010).

One assay concerns giant foxtail (SETFA). The experiment in a line: Test H preemergence mixtures of compound 2 with crop safeners. The format is in vivo, Setaria faberi. Further details: key to SETFA Obsd. (observed effect): observed % effect, visually evaluated vs controls. From the text: (§1) Seeds of test plants consisting of winter wheat (TRZAW, Triticum aestivum), corn (ZEAMD, Zea mays cv. ‘Pioneer 33G26’), giant foxtail (SETFA, Setaria faberi), and Italian ryegrass (LOLMU, Lolium multiflorum) were planted into a blend of loam soil and sand and treated preemergence with a directed soil spray using test chemicals formulated in a non-phytotoxic solvent mixture that included a surfactant. Seeds of small-seeded species were planted about 1 cm deep; larger seeds were planted about 2.5 cm deep. […] Balanced fertilizer was applied through the watering system. Treatments consisted of Compound 2 and the above mentioned safeners alone and in combination using a spray volume of 457 L/ha. Each treatment was replicated four times. Treated plants and controls were maintained in a greenhouse for 14 to 21 days, after which time all species were compared to controls and visually evaluated. […] A dash (-) response means no test result. Colby's Equation was used to determine the herbicidal effects expected from the mixtures. Colby's Equation (Colby, S. […] wherein • Pa+b is the percentage effect of the mixture expected from additive contribution of the individual components, • Pa is the observed percentage effect of the first active ingredient at the same use rate as in the mixture, and • Pb is the observed percentage effect of the second active ingredient at the same use rate as in the mixture.

Assay [1] concerns corn (ZEAMD). Described as above. The format is in vivo, Zea mays cv. ‘Pioneer 33G26’. Further details: key to ZEAMD Obsd. (observed effect): observed % effect, visually evaluated vs controls.
Description: as §1

In assay [2] the test system is winter wheat (TRZAW). The description is as above. The format is in vivo, Triticum aestivum. Further details: key to TRZAW Obsd. (observed effect): observed % effect, visually evaluated vs controls.
Description: as §1

Assay [3] relates to winter wheat (TRZAW). Put plainly: Test J preemergence mixtures of Compound 2 with crop safeners. The format is in vivo, Triticum aestivum. Further details: key to TRZAW Obsd. (observed effect): observed % herbicidal effect.
Description: as §1, with “aestivum) and” for “aestivum),”, “33G26’)” for “33G26’), giant foxtail (SETFA, Setaria faberi), and Italian ryegrass (LOLMU, Lolium multiflorum)”, “surfactant.” for “surfactant. Seeds of small-seeded species were planted about 1 cm deep; larger seeds were planted about 2.5 cm deep.”, “times.” for “times. Treated plants and controls were maintained in a greenhouse for 14 to 21 days, after which time all species were compared to controls and visually evaluated.”, “and” for “and •”

For assay [4], the system named is corn (ZEAMD). The description is as above. The format is in vivo, Zea mays cv. ‘Pioneer 33G26’. The arrangement: key to ZEAMD Obsd. (observed effect): observed % herbicidal effect.
Description: as §1, with “aestivum) and” for “aestivum),”, “33G26’)” for “33G26’), giant foxtail (SETFA, Setaria faberi), and Italian ryegrass (LOLMU, Lolium multiflorum)”, “surfactant.” for “surfactant. Seeds of small-seeded species were planted about 1 cm deep; larger seeds were planted about 2.5 cm deep.”, “times.” for “times. Treated plants and controls were maintained in a greenhouse for 14 to 21 days, after which time all species were compared to controls and visually evaluated.”, “and” for “and •”

Another assay deals with Italian ryegrass (LOLMU). Put plainly: Test I preemergence mixtures of compound 2 with crop safeners. As to conditions: alone. The format is in vivo, Lolium multiflorum. From the text:
(§2) Seeds of test plants consisting of winter wheat (TRZAW, Triticum aestivum), corn (ZEAMD, Zea mays cv. ‘Pioneer 33G26’), wild oat (AVEFA, Avena fatua), and Italian ryegrass (LOLMU, Lolium multiflorum) were planted into a blend of loam soil and sand and treated preemergence with a directed soil spray using test chemicals formulated in a non-phytotoxic solvent mixture that included a surfactant. Seeds of small-seeded species were planted about 1 cm deep; larger seeds were planted about 2.5 cm deep. […] Balanced fertilizer was applied through the watering system. Treatments consisted of Compound 2 and the above mentioned safeners alone and in combination using a spray volume of 457 L/ha. Each treatment was replicated four times. Treated plants and controls were maintained in a greenhouse for 14 to 21 days, after which time all species were compared to controls and visually evaluated. […] A dash (-) response means no test result. Colby's Equation was used to determine the herbicidal effects expected from the mixtures. Colby's Equation (Colby, S. […] Pa+b=Pa+Pb−(PaPb/100) wherein • Pa+b is the percentage effect of the mixture expected from additive contribution of the individual components, • Pa is the observed percentage effect of the first active ingredient at the same use rate as in the mixture, and • Pb is the observed percentage effect of the second active ingredient at the same use rate as in the mixture.

In assay [5] the test system is corn (ZEAMD). Described as above. The conditions noted are these: alone. The format is in vivo, Zea mays cv. ‘Pioneer 33G26’.
Description: as §2

Assay [6] deals with winter wheat (TRZAW). Described as above. The format is in vivo, Triticum aestivum. As to conditions: alone.
Description: as §2

Where [7] appears, read: Cmpd 2 alone 125 g a.i./ha, scale 0 to 100, mean of four replicates.
Where [8] appears, read: single active ingredient alone at 125 g a.i./ha.

As to `Cc1cc[n+]([O-])c(S(=O)(=O)Cc2c(C(F)(F)F)nn(C)c2OC(F)F)c1` [Compound 2], the “Plant response rating SETFA Obsd.” value with giant foxtail (SETFA) (setting [7]) is listed as 100. The “SETFA Obsd. (observed effect)” value in the assay with giant foxtail (SETFA) (Test H, alone, 125 g a.i./ha) was found to be 100. In addition, the “Plant response rating ZEAMD Obsd.” value in the assay on corn (ZEAMD) [1] (setting [7]) is on record as 15. In addition, the “ZEAMD Obsd. (observed effect)” value in the assay with corn (ZEAMD) [1] (Test H, alone, 125 g a.i./ha) amounted to 15; with corn (ZEAMD) [4] (Test J, alone, 125 g a.i./ha), 35; with corn (ZEAMD) [5] (125 g a.i./ha), 69; in the assay with corn (ZEAMD) [5] (250 g a.i./ha), 93. The “Plant response rating TRZAW Obsd.” value in the assay on winter wheat (TRZAW) [2] (setting [7]) was 63. The “TRZAW Obsd. (observed effect)” value with winter wheat (TRZAW) [2] (Test H, alone, 125 g a.i./ha) was 63; in the assay with winter wheat (TRZAW) [3] (Test J, alone, 125 g a.i./ha) it was 100; in the assay with winter wheat (TRZAW) [6] (125 g a.i./ha), 93; in the assay on winter wheat (TRZAW) [6] (250 g a.i./ha), 100. In addition, the “Observed effect (Obsd.), TRZAW” value with winter wheat (TRZAW) [3] (setting [8]) amounted to 100%. Besides, in the assay with corn (ZEAMD) [4] (setting [8]), the “Observed effect (Obsd.), ZEAMD” value is recorded as 35%. Further, the “LOLMU Obsd. (observed effect)” value in the assay on Italian ryegrass (LOLMU) (125 g a.i./ha) worked out at 48; in the assay on Italian ryegrass (LOLMU) (250 g a.i./ha) it was 89.
